The assay relates to MCH receptors. Description: MCH receptor activity class (method not given).
[1] abbreviates: class by percent of control at 10^−7 M or IC50.

Regarding `Cc1cnc(N[C@H]2CC[C@@H](NC(=O)N(C)c3ccc(Cl)c(Cl)c3)CC2)nc1N(C)C` [compound 3022, N-(3,4-dichlorophenyl)-N′-(cis-4-{[4-(dimethylamino)-5-methylpyrimidin-2-yl]amino}cyclohexyl)-N-methylurea], the class under setting [1] was 1 (Class 1: The value of percent of control at 10^−7 M was less than 40% or the value of IC50 was less than 50 nM.).

For the compound `Cc1cccc(N(C)C(=O)N[C@H]2CC[C@@H](Nc3ncc(C)c(N(C)C)n3)CC2)c1` [compound 3023, N′-(cis-4-{[4-(dimethylamino)-5-methylpyrimidin-2-yl]amino}cyclohexyl)-N-methyl-N-(3-methylphenyl)urea], the class under setting [1] is reported as 1 (Class 1: The value of percent of control at 10^−7 M was less than 40% or the value of IC50 was less than 50 nM.).

For the compound `Cc1ccc(N(C)C(=O)N[C@H]2CC[C@@H](Nc3ncc(C)c(N(C)C)n3)CC2)cc1` [compound 3024, N′-(cis-4-{[4-(dimethylamino)-5-methylpyrimidin-2-yl]amino}cyclohexyl)-N-methyl-N-(4-methylphenyl)urea], the class under setting [1] is listed as 1 (Class 1: The value of percent of control at 10^−7 M was less than 40% or the value of IC50 was less than 50 nM.).

Turning to `Cc1cnc(N[C@H]2CC[C@@H](NC(=O)N(C)c3cccc(F)c3)CC2)nc1N(C)C` [compound 3025, N′-(cis-4-{[4-(dimethylamino)-5-methylpyrimidin-2-yl]amino}cyclohexyl)-N-(3-fluorophenyl)-N-methylurea], the class under setting [1] is recorded as 1 (Class 1: The value of percent of control at 10^−7 M was less than 40% or the value of IC50 was less than 50 nM.).

On to `Cc1cnc(N[C@H]2CC[C@@H](NC(=O)N(C)c3ccc(F)cc3)CC2)nc1N(C)C` [compound 3026, N′-(cis-4-{[4-(dimethylamino)-5-methylpyrimidin-2-yl]amino}cyclohexyl)-N-(4-fluorophenyl)-N-methylurea], for which the class under setting [1] was 1 (Class 1: The value of percent of control at 10^−7 M was less than 40% or the value of IC50 was less than 50 nM.).

For `Cc1cnc(N[C@H]2CC[C@@H](NC(=O)N(C)c3ccc(Cl)cc3)CC2)nc1N(C)C` [compound 3027, N-(4-chlorophenyl)-N′-(cis-4-{[4-(dimethylamino)-5-methylpyrimidin-2-yl]amino}cyclohexyl)-N-methylurea], under setting [1], the class is given as 1 (Class 1: The value of percent of control at 10^−7 M was less than 40% or the value of IC50 was less than 50 nM.).

Regarding `COc1cccc(N(C)C(=O)N[C@H]2CC[C@@H](Nc3ncc(C)c(N(C)C)n3)CC2)c1` [compound 3028, N′-(cis-4-{[4-(dimethylamino)-5-methylpyrimidin-2-yl]amino}cyclohexyl)-N-(3-methoxyphenyl)-N-methylurea], the class under setting [1] is 1 (Class 1: The value of percent of control at 10^−7 M was less than 40% or the value of IC50 was less than 50 nM.).

As to `COc1ccc(N(C)C(=O)N[C@H]2CC[C@@H](Nc3ncc(C)c(N(C)C)n3)CC2)cc1` [compound 3029, N′-(cis-4-{[4-(dimethylamino)-5-methylpyrimidin-2-yl]amino}cyclohexyl)-N-(4-methoxyphenyl)-N-methylurea], the class under setting [1] is 1 (Class 1: The value of percent of control at 10^−7 M was less than 40% or the value of IC50 was less than 50 nM.).

As to `CNc1nc(N[C@H]2CC[C@@H](NC(=O)c3ccc(Cl)c(Cl)c3)CC2)ncc1C` [compound 3030], the class under setting [1] is 3 (Class 3 The value of percent of control at 10^−7 M was more than 60% or the value of IC50 was more than 200 nM.).

In the case of “(2-{[4-(4-Dimethylamino-5,6,7,8-tetrahydro-quinazolin-2-ylamino)-cyclohexylamino]-methyl}-cyclohexyl)-phenyl-methanol [compound 1492]”, where the note is “class by percent of control at 10^-7 M or IC50”, the class is 3 (Class 3 The value of percent of control at 10^−7 M was more than 60% or the value of IC50 was more than 200 nM.).
